The values below are quoted from earlier work in patent publication EP1337618B1, “CLEANING TABLETS” (UNILEVER N.V., priority 2000, dated 2002).

Where [1] appears, read: at 20°C, other common materials.

SMILES strings stand for the structures. Like-named read-outs stand apart in the source and are kept apart here. Some results are limits rather than exact numbers.

With `O=BO[O-].[Na+]` [Sodium perborate anhydrous], the “Water Solubility” value under setting [1] is 3.7 g/100g. Regarding `O=P(O)(O)OP(=O)(O)OP(=O)(O)O` [Sodium tripolyphosphate anhydrous], the “Water Solubility” value under setting [1] is given as 15 g/100g. In the case of `NC(N)=O` [Urea], the solubility in water result (at 20°C) is “exceeding 100 gms per 100ml water”. The “Water Solubility” value (deionised water at 20°C, highly water-soluble materials) is reported as over 100 g/100g.
